Entries after “also recorded” stand apart in the source; their conditions may differ. Like-named read-outs stand apart in the source and are kept apart here.
Assays:
[1] = test system: panel of cancer cell lines; test: SRB assay, panel of cancer cell lines and normal fibroblast line; format: cell-based, human; settings: 96 h exposure; for IC50: Homo sapiens, Fibroblast, read-out: IC50 values across the cell line panel
Description: (§1) Human cancer cell lines, MCF7 (breast), A549 (lung), Mia-PaCa2, PANC1 and HPAC (pancreatic), RCC4 and 786-0 renal, and the somatic human cell line WI-38 (lung fibroblast) were purchased from ATCC. Cell lines were maintained in appropriate medium supplemented with 10% foetal bovine serum (Invitrogen, UK), 2 mM L-glutamine (Invitrogen, Netherlands), and other components as specified by the suppliers. Cell lines were maintained at 37° C., 5% CO2 and routinely passaged. Drugs were dissolved in DMSO and filtered through 0.22 μm pore-size filter units before addition to cell line appropriate media. Cellular growth inhibition was measured using the sulforhodamine B (SRB) assay in 96 well plates as described previously.^1,2 Fifty percent inhibitory concentrations (IC50) were determined by taking the mean absorbance at 540 nm for each drug concentration expressed as a percentage of the absorbance of untreated control wells.
(§2) The anti-proliferative activity of the group of nine ND derivatives was assessed using the SRB assay following 96 h exposure to 2-fold serial dilutions of each compound (Table 2) in a panel of cancer cell lines together with a normal fibroblast line. […] In contrast the morpholine compounds all show sub-μM anti-proliferative activity in at least some of the cancer cell lines used and the two compounds 3d, 3h with n=3 —(CH2)n— linkers to the morpholine groups, show particularly potent activity in the Mia-PaCa2 and PANC1 pancreatic carcinoma and A549 lung adenocarcinoma cell lines (IC50 values of 10-20 nM).

[2] = test system: human telomeric G-quadruplex DNA (F21T); test: FRET melting assay, human telomeric quadruplex; format: binding; settings: for telomeric quadruplex stabilization (in words): FRET melting; for change in melting temperature F21T 1 uM: 1 uM ligand; for change in melting temperature F21T 2 uM: 2 uM ligand
Description: (§3) The ability of the naphthalene diimide compounds to stabilize DNA sequences was investigated using a fluorescence resonance energy transfer (FRET) assay modified to be used as a high-throughput screen in a 96-well format. Several quadruplex sequences were studied (the human telomeric G-quadruplex DNA sequence 5′-FAM-d(GGG[TTAGGG]3)-TAMRA-3′ and the duplex sequence 5′-FAM-dTATAGCTATA-HEG-TATAGCTATA-TAMRA-3′ (HEG linker: [(—CH2—CH2—O—)6])), as well as two overlapping sequences from the HSP90 promoter region (HSP90a and HSP90b):
(§4) The labelled oligonucleotides have attached to them the donor fluorophore FAM: 6-carboxyfluorescein and the acceptor fluorophore TAMRA: 6-carboxytetramethylrhodamine. The FRET probe sequences were diluted from stock to the correct concentration (400 nM) in a 60 mM potassium cacodylate buffer (pH 7.4) and then annealed by heating to 85° C. for 10 min, followed by cooling to room temperature in the heating block. The compound was stored as a 10 mM stock solution in DMSO; final solutions (at 2×concentration) were prepared using 10 mM HCl in the initial 1:10 dilution, after which 60 mM potassium cacodylate buffer (pH 7.4) was used in all subsequent steps. The maximum HCl concentration in the reaction volume (at a ligand concentration of 20 μM) is thus 200 μM, well within the range of the buffer used. Relevant controls were also performed to check for interference with the assay. 96-Well plates (MJ Research, Waltham, Mass.) were prepared by aliquoting 50 μl of the annealed DNA into each well, followed by 50 μl of the compound solutions. Measurements were made on a DNA Engine Opticon (MJ Research) with excitation at 450-495 nm and detection at 515-545 nm. Fluorescence readings were taken at intervals of 0.5° C. in the range 30-100° C., with a constant temperature being maintained for 30 s prior to each reading to ensure a stable value. Final analysis of the data was carried out using a script written in the program Origin 7.0 (OriginLab Corp., Northampton, Mass.). The advanced curve-fitting function in Origin 7.0 was used for calculation of ΔTm values. All determinations were performed in triplicate or better. Esds in ΔTm are ±0.1° C.
The ability of compounds 3a-h to stabilize a human telomeric quadruplex was assessed by a high-throughput FRET (Fluorescence Resonance Energy Transfer) melting technique. […] None of the furan tetrahydrofuran, pyranose or acyclic ether compounds has any effect on quadruplex or duplex stability.
(§5) The T-loop sequence represents duplex DNA.

RCC4 (renal) cells = test: SRB growth inhibition assay, 96 hr exposure, RCC4; format: cell-based, human
Description: as §1, §2
(§6) Next a series of structural isomers were tested.

Panc1 (pancreatic) cells = test: SRB growth inhibition assay, 96 hr exposure, Panc1; format: cell-based, human
Description: as §1, §2, §6

A549 (lung) cells = test: SRB growth inhibition assay, 96 hr exposure, A549; format: cell-based, human
Description: as §1, §2, §6

duplex DNA (T-loop) = test: FRET melting assay, duplex DNA; format: binding; settings: for change in melting temperature Tloop 1 uM: 1 uM ligand; for change in melting temperature Tloop 2 uM: 2 uM ligand
Description: as §3, §4, §5

[3] = test system: HSP90a promoter quadruplex sequence; test: FRET melting assay, Hsp90A quadruplex; format: binding; settings: for change in melting temperature Hsp90A 1 uM: 1 uM ligand; for change in melting temperature Hsp90A 2 uM: 2 uM ligand
Description: as §3
as §4, with “±0.1° C. […]” for “±0.1° C.”

MCF-7 (breast) cells = test: SRB growth inhibition assay, 96 hr exposure, MCF-7; format: cell-based, human
Description: as §1, §2, §6

[4] = test system: HSP90b promoter quadruplex sequence; test: FRET melting assay, Hsp90B quadruplex; format: binding; settings: for change in melting temperature Hsp90B 1 uM: 1 uM ligand; for change in melting temperature Hsp90B 2 uM: 2 uM ligand
Description: as §3
as §4, with “±0.1° C. […]” for “±0.1° C.”

786-O (renal) cells = test: SRB growth inhibition assay, 96 hr exposure, 786-O; format: cell-based, human; settings: SRB assay, 96 hr exposure
Description: as §1, §2, §6

[5] = test system: WI38 normal human fibroblast cells; test: SRB growth inhibition assay, 96 hr exposure, WI38; format: cell-based
Description: as §1
as §2, with “nM). […]” for “nM).”

[6] = test system: MiaPaCa2 (pancreatic) cells; test: SRB growth inhibition assay, MiaPaCa2; format: cell-based, human; settings: SRB assay, 96 hr exposure
Description: as §1, §2
Dose-response curves were used to guide the choice of compound concentration and time-points for the array experiments (FIG. 2a). […] To explore this response continuum the transcriptional signature of cells exposed for 24 h to 20 nM, 40 nM, 80 nM concentrations of 3d, or solvent alone as control, was analysed as described in Materials and Methods.
as §6

SMILES: CN1CCN(CCCNc2cc3c4c(c(NCCCN5CCN(C)CC5)cc5c4c2C(=O)N(CC2CCCO2)C5=O)C(=O)N(CC2CCCO2)C3=O)CC1 (racemic) [Compound 3a, 4,9-bis((3-(4-methylpiperazin-1-yl)propyl)amino)-2,7-bis((tetrahydrofuran-2-yl)methyl)benzo[lmn][3,8]phenanthroline-1,3,6,8(2H,7H)-tetraone]
- anti-proliferative activity (in words) [1]: devoid of significant anti-proliferative activity in all except the Mia-PaCa2 and A549 lines

SMILES: CN1CCN(CCCNc2cc3c4c(c(NCCCN5CCN(C)CC5)cc5c4c2C(=O)N(Cc2ccco2)C5=O)C(=O)N(Cc2ccco2)C3=O)CC1 [Compound 3b, 2,7-bis(furan-2-ylmethyl)-4,9-bis((3-(4-methylpiperazin-1-yl)propyl)amino)benzo[lmn][3,8]phenanthroline-1,3,6,8(2H,7H)-tetraone]
- telomeric quadruplex stabilization (in words) [2]: low level of quadruplex binding
- IC50 [1]: 1000 to 8000 nM

SMILES: COCCCN1C(=O)c2cc(NCCCN3CCN(C)CC3)c3c4c(cc(NCCCN5CCN(C)CC5)c(c24)C1=O)C(=O)N(CCCOC)C3=O [Compound 3e, 2,7-bis(3-methoxypropyl)-4,9-bis((3-(4-methylpiperazin-1-yl)propyl)amino)benzo[lmn][3,8]phenanthroline-1,3,6,8(2H,7H)-tetraone]
- telomeric quadruplex stabilization (in words) [2]: very slight effect; also recorded: low level of quadruplex binding
- IC50 [1]: 1000 to 8000 nM

SMILES: CN1CCN(CCCNc2cc3c4c(c(NCCCN5CCN(C)CC5)cc5c4c2C(=O)N(CCCN2CCOCC2)C5=O)C(=O)N(CCCN2CCOCC2)C3=O)CC1 [MM41]
- IC50 (RCC4 (renal) cells; Homo sapiens, RCC4): 560 ± 50 nM
- IC50 (Panc1 (pancreatic) cells; Homo sapiens, PANC-1, 96 hr exposure): 3 ± 0.5 nM
- IC50 (A549 (lung) cells; Homo sapiens, A549, 96 hr exposure): 19 ± 5 nM
- change in melting temperature Tloop 1 uM (duplex DNA (T-loop)): 5
- change in melting temperature Tloop 2 uM (duplex DNA (T-loop)): 9
- change in melting temperature Hsp90A 1 uM [3]: 33
- change in melting temperature Hsp90A 2 uM [3]: 36
- change in melting temperature F21T 1 uM [2]: 27
- change in melting temperature F21T 2 uM [2]: 32
- IC50 (MCF-7 (breast) cells; Homo sapiens, MCF7): 70 ± 7 nM
- change in melting temperature Hsp90B 1 uM [4]: 29
- change in melting temperature Hsp90B 2 uM [4]: 33
- IC50 (786-O (renal) cells; Homo sapiens, 786-0): 320 ± 10 nM
- IC50 ([5]; Homo sapiens, WI-38): 230 ± 10 nM
- IC50 ([6]; Homo sapiens, MIA PaCa-2): 10 ± 10 nM

SMILES: COCCCNc1cc2c3c(c(NCCCOC)cc4c3c1C(=O)N(CCCN1CCN(C)CC1)C4=O)C(=O)N(CCCN1CCN(C)CC1)C2=O [SKM022]
- IC50 (RCC4 (renal) cells): 7600 ± 10 nM
- IC50 (Panc1 (pancreatic) cells; 96 hr exposure): 2500 ± 340 nM
- IC50 (A549 (lung) cells; 96 hr exposure): 5750 ± 510 nM
- change in melting temperature Tloop 1 uM (duplex DNA (T-loop)): 0
- change in melting temperature Tloop 2 uM (duplex DNA (T-loop)): 0
- change in melting temperature Hsp90A 1 uM [3]: 22
- change in melting temperature Hsp90A 2 uM [3]: 24
- change in melting temperature F21T 1 uM [2]: <2
- change in melting temperature F21T 2 uM [2]: 16
- IC50 (MCF-7 (breast) cells): 17500 ± 980 nM
- change in melting temperature Hsp90B 1 uM [4]: 22
- change in melting temperature Hsp90B 2 uM [4]: 26
- IC50 (786-O (renal) cells): 16100 ± 630 nM
- IC50 [5]: > 25000 nM
- IC50 [6]: 7050 ± 830 nM

SMILES: CN1CCN(CCCN2C(=O)c3cc(NCCCN4CCOCC4)c4c5c(cc(NCCCN6CCOCC6)c(c35)C2=O)C(=O)N(CCCN2CCN(C)CC2)C4=O)CC1 [SKM029]
- IC50 (RCC4 (renal) cells): 610 ± 70 nM
- IC50 (Panc1 (pancreatic) cells; 96 hr exposure): 2 ± 1 nM
- IC50 (A549 (lung) cells; 96 hr exposure): 7 ± 1 nM
- change in melting temperature Tloop 1 uM (duplex DNA (T-loop)): 5
- change in melting temperature Tloop 2 uM (duplex DNA (T-loop)): 9
- change in melting temperature Hsp90A 1 uM [3]: 34
- change in melting temperature Hsp90A 2 uM [3]: 36
- change in melting temperature F21T 1 uM [2]: 29
- change in melting temperature F21T 2 uM [2]: 34
- IC50 (MCF-7 (breast) cells): 14 ± 1 nM
- change in melting temperature Hsp90B 1 uM [4]: 30
- change in melting temperature Hsp90B 2 uM [4]: 34
- IC50 (786-O (renal) cells): 440 ± 70 nM
- IC50 [5]: 300 ± 23 nM
- IC50 [6]: 50 ± 2 nM

SMILES: CN1CCN(CCN2C(=O)c3cc(NCCCN4CCOCC4)c4c5c(cc(NCCCN6CCOCC6)c(c35)C2=O)C(=O)N(CCN2CCN(C)CC2)C4=O)CC1 [SKM036]
- IC50 (RCC4 (renal) cells): 300 ± 16 nM
- IC50 (Panc1 (pancreatic) cells; 96 hr exposure): 5 ± 1 nM
- IC50 (A549 (lung) cells; 96 hr exposure): 20 ± 1 nM
- change in melting temperature Tloop 1 uM (duplex DNA (T-loop)): 2
- change in melting temperature Tloop 2 uM (duplex DNA (T-loop)): 8
- change in melting temperature Hsp90A 1 uM [3]: 33
- change in melting temperature Hsp90A 2 uM [3]: 36
- change in melting temperature F21T 1 uM [2]: 26
- change in melting temperature F21T 2 uM [2]: 31
- IC50 (MCF-7 (breast) cells): 21 ± 1 nM
- change in melting temperature Hsp90B 1 uM [4]: 28
- change in melting temperature Hsp90B 2 uM [4]: 32
- IC50 (786-O (renal) cells): 160 ± 21 nM
- IC50 [5]: 180 ± 2 nM
- IC50 [6]: 5 ± 1 nM

SMILES: CN1CCN(CCCN2C(=O)c3cc(NCC4CCOCC4)c4c5c(cc(NCC6CCOCC6)c(c35)C2=O)C(=O)N(CCCN2CCN(C)CC2)C4=O)CC1 [SKM052]
- IC50 (RCC4 (renal) cells): 2200 ± 15 nM
- IC50 (Panc1 (pancreatic) cells; 96 hr exposure): 1100 ± 130 nM
- IC50 (A549 (lung) cells; 96 hr exposure): 460 ± 10 nM
- change in melting temperature Tloop 1 uM (duplex DNA (T-loop)): 0
- change in melting temperature Tloop 2 uM (duplex DNA (T-loop)): 0
- change in melting temperature Hsp90A 1 uM [3]: 2
- change in melting temperature Hsp90A 2 uM [3]: 27
- change in melting temperature F21T 1 uM [2]: <2
- change in melting temperature F21T 2 uM [2]: 22
- IC50 (MCF-7 (breast) cells): 510 ± 17 nM
- change in melting temperature Hsp90B 1 uM [4]: 3
- change in melting temperature Hsp90B 2 uM [4]: 23
- IC50 (786-O (renal) cells): 290 ± 2 nM
- IC50 [5]: 2800 ± 230 nM
- IC50 [6]: 137 ± 31 nM
